Experimental data taken from patent US12421225B2, “Heteroaromatic amide derivative and medicament containing the same” (KAKEN PHARMACEUTICAL CO., LTD., priority 2018, dated 2025).

Assays:
human Nav1.7 = human Nav1.7 (Homo sapiens (Human), UniProt Q15858); experiment: Human Nav1.7 inhibitory activity evaluation (automated patch clamp QPatch16X, HEK293A cells stably expressing human Nav1.7 and human Navβ1); type: cell-based
Summary of the method: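 QPatch16X whole-cell recordings at room temperature from HEK293A cells stably expressing human Nav1.7 with Navβ1, CsF-based internal solution, pH 7.4 external, 0.1% DMSO. From −100 mV holding, protocol included a 15 s hold at a potential inactivating ~30-40% of channels; IC50 from inward current at the second −10 mV pulse.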

human Nav1.5 = human Nav1.5 (Homo sapiens (Human), UniProt Q14524); experiment: Human Nav1.5 inhibitory activity evaluation (automated patch clamp QPatch16X, HEK293 cells stably expressing human Nav1.5); type: cell-based
Procedure: Test Example 2: Human Nav1.5 Inhibitory Activity Evaluation
A cell line in which human Nav1.5 was stably expressed in HEK293 cells was used. DMEM supplemeted with 15% fetal bovine serum, 500 μg/ml geneticin, 100 units/ml penicillin, 100 μg/ml streptomycin, 20 mM HEPES was used as culture medium under the conditions of 37° C. and 5% CO2 in T175 flasks to carry out culturing. When 60-80% confluence was reached, a cell suspension of about 0.5-5.0×10^6 cells/mL was prepared. The amount of current through human Nav1.5 was recorded using a fully automatic patch clamp device QPatch16X at room temperature. As the extracellular solution, 145 mM NaCl, 4 mM KCl, 1 mM MgCl2, 2 mM CaCl2, 10 mM Glucose, and 10 mM HEPES at pH 7.4 was used. As the intracellular solution, 135 mM CsF, ⅕ mM EGTA/CsOH, 10 mM HEPES, and 10 mM NaCl at pH 7.3 was used. The test compounds were dissolved in DMSO and diluted with the extracellular solution to attend the DMSO concentration of 0.1% at the time of assay.
The current response was obtained at a sampling frequency of 25 kHz, and noise was removed with a 3 kHz low-pass filter. The holding potential was −80 mV. Correction of the leakage current was carried out by applying a step pulse of −100 mV before the test pulse. In order to investigate human Nav1.5 inhibitory effect of the test compound, test pulses imitating the action potential of cardiomyocytes were continuously given 20 times. The test pulses were given before and after the test compound addition.
The inhibitory activity of the test compound was determined based on the amount of inward current generated by the 20th depolarization pulse, and the 50% inhibitory concentration (IC50) was calculated from the concentration-response curve.

[1] = human Nav1.7, automated patch clamp
[2] = human Nav1.5, automated patch clamp
[3] = HEK293A cells stably expressing human Nav1.7 and human Navβ1, automated patch clamp QPatch16X
[4] = HEK293 cells stably expressing human Nav1.5, automated patch clamp QPatch16X

Chain of human Nav1.7 (Q15858 whole entry): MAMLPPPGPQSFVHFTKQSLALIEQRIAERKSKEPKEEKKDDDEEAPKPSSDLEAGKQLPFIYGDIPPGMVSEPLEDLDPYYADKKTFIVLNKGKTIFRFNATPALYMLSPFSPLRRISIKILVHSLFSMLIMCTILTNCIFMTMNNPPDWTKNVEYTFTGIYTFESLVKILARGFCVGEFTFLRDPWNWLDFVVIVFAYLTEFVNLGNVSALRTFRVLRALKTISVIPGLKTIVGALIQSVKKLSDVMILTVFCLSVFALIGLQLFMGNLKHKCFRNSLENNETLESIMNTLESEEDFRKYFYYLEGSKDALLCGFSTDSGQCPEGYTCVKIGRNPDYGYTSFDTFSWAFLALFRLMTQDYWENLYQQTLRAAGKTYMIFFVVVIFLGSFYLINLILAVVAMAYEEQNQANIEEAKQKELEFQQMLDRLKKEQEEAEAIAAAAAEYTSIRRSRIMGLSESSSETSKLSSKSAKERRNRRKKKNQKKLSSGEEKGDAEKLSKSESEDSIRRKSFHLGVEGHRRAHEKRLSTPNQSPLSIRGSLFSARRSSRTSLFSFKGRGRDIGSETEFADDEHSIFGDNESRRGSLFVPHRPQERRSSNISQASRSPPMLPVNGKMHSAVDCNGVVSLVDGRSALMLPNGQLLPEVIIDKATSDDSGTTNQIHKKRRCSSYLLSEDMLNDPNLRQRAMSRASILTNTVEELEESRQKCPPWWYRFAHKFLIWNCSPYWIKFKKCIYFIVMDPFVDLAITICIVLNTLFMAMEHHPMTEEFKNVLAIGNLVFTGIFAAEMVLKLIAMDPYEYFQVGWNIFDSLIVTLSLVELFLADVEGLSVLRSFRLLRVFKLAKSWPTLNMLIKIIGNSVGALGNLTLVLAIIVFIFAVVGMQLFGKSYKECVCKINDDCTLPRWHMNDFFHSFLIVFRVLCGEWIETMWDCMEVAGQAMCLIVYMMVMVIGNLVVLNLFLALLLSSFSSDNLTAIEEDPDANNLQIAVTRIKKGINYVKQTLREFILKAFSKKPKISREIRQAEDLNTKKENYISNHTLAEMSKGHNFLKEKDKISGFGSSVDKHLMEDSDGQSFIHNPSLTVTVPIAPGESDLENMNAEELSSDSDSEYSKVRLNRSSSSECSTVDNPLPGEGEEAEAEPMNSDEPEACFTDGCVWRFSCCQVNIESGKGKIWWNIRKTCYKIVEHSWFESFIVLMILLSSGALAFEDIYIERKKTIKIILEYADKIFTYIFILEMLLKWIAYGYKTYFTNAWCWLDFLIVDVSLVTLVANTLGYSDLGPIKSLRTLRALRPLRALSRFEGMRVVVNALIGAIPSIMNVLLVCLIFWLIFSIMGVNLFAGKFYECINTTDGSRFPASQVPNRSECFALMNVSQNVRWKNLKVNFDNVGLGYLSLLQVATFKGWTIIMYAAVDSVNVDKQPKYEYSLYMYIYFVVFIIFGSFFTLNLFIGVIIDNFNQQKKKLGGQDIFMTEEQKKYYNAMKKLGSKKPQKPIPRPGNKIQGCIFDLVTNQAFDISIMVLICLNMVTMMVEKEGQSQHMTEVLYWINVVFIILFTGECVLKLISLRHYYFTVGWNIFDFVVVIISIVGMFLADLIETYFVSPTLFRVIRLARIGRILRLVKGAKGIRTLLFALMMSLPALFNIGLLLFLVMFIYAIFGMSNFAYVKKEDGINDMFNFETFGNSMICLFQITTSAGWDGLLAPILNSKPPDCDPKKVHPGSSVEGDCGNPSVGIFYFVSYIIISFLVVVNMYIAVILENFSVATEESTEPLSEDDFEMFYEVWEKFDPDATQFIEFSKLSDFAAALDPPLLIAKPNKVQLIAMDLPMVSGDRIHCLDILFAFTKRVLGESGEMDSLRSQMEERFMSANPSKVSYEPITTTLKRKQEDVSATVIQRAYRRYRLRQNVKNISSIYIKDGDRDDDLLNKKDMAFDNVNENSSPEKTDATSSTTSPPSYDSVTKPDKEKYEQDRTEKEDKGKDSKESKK
Chain of human Nav1.7 (Q07699 19-218 partner): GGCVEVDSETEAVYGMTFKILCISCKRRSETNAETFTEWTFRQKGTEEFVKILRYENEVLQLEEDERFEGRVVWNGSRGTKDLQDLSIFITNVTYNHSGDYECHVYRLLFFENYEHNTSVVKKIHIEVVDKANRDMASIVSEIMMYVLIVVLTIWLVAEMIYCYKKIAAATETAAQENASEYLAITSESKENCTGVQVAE
Chain of human Nav1.5 (Q14524 whole entry): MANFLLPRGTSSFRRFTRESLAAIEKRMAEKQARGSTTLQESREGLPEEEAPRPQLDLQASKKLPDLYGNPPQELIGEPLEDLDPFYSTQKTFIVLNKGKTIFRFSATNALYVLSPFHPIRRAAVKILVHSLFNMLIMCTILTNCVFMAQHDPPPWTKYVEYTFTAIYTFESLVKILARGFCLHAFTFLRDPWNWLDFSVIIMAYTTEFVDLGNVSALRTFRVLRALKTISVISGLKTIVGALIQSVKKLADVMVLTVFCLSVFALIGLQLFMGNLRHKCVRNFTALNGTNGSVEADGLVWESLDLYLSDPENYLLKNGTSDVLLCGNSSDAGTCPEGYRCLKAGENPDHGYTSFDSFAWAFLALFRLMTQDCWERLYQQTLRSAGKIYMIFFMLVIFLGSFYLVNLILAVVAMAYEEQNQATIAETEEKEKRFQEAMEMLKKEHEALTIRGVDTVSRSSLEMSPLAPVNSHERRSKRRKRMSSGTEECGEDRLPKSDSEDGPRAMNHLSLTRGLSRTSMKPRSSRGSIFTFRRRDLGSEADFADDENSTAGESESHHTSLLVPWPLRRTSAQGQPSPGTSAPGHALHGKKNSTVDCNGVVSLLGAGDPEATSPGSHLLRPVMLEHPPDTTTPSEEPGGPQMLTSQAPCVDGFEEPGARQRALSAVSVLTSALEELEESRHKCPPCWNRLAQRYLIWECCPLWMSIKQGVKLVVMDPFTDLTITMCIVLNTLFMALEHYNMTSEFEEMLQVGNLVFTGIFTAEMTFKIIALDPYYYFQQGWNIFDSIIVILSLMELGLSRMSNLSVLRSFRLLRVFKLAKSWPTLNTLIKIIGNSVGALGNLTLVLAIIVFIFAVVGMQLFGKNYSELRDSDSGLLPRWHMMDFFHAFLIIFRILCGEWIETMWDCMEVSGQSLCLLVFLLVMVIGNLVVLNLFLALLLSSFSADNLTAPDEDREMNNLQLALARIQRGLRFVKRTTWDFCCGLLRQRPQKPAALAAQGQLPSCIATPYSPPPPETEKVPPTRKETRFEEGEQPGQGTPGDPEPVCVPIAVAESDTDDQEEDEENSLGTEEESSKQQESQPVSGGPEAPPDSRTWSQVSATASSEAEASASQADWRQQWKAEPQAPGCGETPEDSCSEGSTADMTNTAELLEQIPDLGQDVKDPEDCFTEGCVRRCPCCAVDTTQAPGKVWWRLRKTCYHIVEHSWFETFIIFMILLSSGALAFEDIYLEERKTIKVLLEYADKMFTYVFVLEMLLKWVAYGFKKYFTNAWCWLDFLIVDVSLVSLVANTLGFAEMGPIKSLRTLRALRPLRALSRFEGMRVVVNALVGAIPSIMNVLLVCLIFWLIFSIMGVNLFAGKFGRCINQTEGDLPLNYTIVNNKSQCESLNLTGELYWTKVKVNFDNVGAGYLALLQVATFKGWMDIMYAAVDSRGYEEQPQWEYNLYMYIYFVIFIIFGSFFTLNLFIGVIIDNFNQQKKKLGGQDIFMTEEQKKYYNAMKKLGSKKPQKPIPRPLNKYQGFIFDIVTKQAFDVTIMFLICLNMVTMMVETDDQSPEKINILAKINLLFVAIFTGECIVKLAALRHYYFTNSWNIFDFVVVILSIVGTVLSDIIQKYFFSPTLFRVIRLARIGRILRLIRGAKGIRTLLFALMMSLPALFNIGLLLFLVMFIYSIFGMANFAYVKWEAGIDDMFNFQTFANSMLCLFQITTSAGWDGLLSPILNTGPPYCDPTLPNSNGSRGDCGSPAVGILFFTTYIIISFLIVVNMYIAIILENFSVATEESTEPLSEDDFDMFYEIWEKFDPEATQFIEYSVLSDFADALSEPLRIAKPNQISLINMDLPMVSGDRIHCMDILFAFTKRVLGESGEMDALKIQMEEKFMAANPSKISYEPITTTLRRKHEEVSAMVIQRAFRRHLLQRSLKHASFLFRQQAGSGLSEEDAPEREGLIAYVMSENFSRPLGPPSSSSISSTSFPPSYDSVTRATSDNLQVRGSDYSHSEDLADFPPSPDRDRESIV

Row | SMILES | IC50 (human Nav1.7; [1]) [nM] | IC50 (human Nav1.5; [2]) [nM] | IC50 (human Nav1.7; [3]) [nM] | IC50 (human Nav1.5; [4]) [nM]
1 | N#Cc1ccc2c(c1)C[C@@H](NC(=O)c1cc3n(n1)CCC(CCOC(F)F)O3)CO2 (single isomer, unassigned) [146 (isomer B)] | < 1000 | ≥ 3000 |  | 
2 | O=C(N[C@H]1COc2ccc(C(F)(F)F)cc2C1)c1cc2n(n1)CCN(CCC(F)(F)F)C2 [Example 506] | < 1000 | 1000 to 3000 |  | 
3 | O=C(NC1COc2cccc(Br)c2C1)c1cn2c(n1)CCC(C(F)(F)F)C2 (single isomer, unassigned) [9 (isomer A)] |  |  | < 10000 | ≥ 3000
4 | O=C(N[C@H]1COc2ccccc2C1)c1nc2n(c1-c1ccccc1)CCOC2 [Example 64] |  |  | < 10000 | < 1000
5 | N#Cc1ccc2c(c1)C[C@@H](NC(=O)c1cc3n(n1)CC(CCCOC(F)F)O3)CO2 (single isomer, unassigned) [248 (isomer A)] | < 1000 | 1000 to 3000 |  | 
6 | O=C(N[C@H]1COc2ccc(Cl)cc2C1)c1cc2n(n1)CC(CCN1CC(F)(F)C1)O2 (single isomer, unassigned) [234 (isomer A)] | < 1000 | ≥ 3000 |  | 
7 | O=C(NC1COc2ccc(F)cc2C1)c1cc2n(n1)CCC(c1ccccc1)O2 (stereo not drawn) [Example 352] | < 1000 | ≥ 3000 |  | 
8 | O=C(N[C@H]1COc2ccc(-c3cscn3)cc2C1)c1cc2n(n1)CCC(COCC1CC1)O2 (stereo partly drawn) [Example 427] | < 1000 | 1000 to 3000 |  | 
9 | CC1(COCC2CCn3nc(C(=O)N[C@H]4COc5ccc(C#N)cc5C4)cc3O2)CC1 (single isomer, unassigned) [113 (isomer A)] |  |  | < 1000 | 1000 to 3000
10 | O=C(N[C@H]1COc2ccc(CC(F)F)cc2C1)c1cc2n(n1)CCC(COCC1CC1)O2 (single isomer, unassigned) [109 (isomer A)] |  |  | < 1000 | 1000 to 3000
11 | N#Cc1ccc2c(c1)C[C@@H](NC(=O)c1cc3n(n1)CC(CSCC(F)(F)F)O3)CO2 (single isomer, unassigned) [200 (isomer B)] | < 1000 | ≥ 3000 |  | 
12 | O=C(N[C@H]1COc2ccc(-c3cnccn3)cc2C1)c1cc2n(n1)CC(CCOC(F)F)O2 (stereo partly drawn) [Example 222] | < 1000 | ≥ 3000 |  | 
13 | CC1CCn2nc(C(=O)N[C@H]3COc4ccc(Cl)cc4C3)cc2O1 (stereo partly drawn) [Example 85] |  |  | < 1000 | ≥ 3000
14 | O=C(N[C@H]1COc2ccc(C(F)(F)F)cc2C1O)c1cc2n(n1)CC(CCCOCC(F)F)O2 (single isomer, unassigned) [608 (isomer A)] | < 1000 | ≥ 3000 |  | 
15 | O=C(N[C@H]1COc2ccc(COCC3CC3)cc2C1)c1cc2n(n1)CCC(C(F)(F)F)O2 (stereo partly drawn) [Example 391] | < 1000 | ≥ 3000 |  | 
16 | CN1Cc2nc(C(=O)NC3COc4cccc(C(F)(F)F)c4C3)cn2CC1c1ccccc1 (stereo not drawn) [Example 334] | < 10000 | 1000 to 3000 |  | 
17 | O=C(c1cc2n(n1)CCC(c1ccccc1)O2)N1CCC(c2cccc(C(F)(F)F)c2)C1 (stereo not drawn) [Example 350] | < 10000 | ≥ 3000 |  | 
18 | O=C(NC1COc2ccc(F)cc2C1)c1cn2c(n1)CCC(C(F)(F)F)C2 (stereo not drawn) [Example 1, N-(6-fluorochroman-3-yl)-6-(trifluoromethyl)-5,6,7,8-tetrahydroimidazo[1,2-a]pyridine-2-carboxamide] |  |  | < 10000 | ≥ 3000
19 | O=C(NCCc1cccc(C(F)(F)F)c1)c1cn2c(n1)CNC(c1cccc(C(F)(F)F)n1)C2 (stereo not drawn) [Example 324] | < 10000 | ≥ 3000 |  | 
20 | COc1cccc2c1CC(NC(=O)c1cc3n(n1)CCC(c1ccccc1)O3)CO2 (stereo not drawn) [Example 351] | < 1000 | ≥ 3000 |  | 
21 | O=C(N[C@H]1COc2ccc(C(F)F)cc2C1)c1cc2n(n1)CCN(Cc1ccccn1)C2 [Example 492] | < 10000 | ≥ 3000 |  | 
